Where two headings read alike, the source gives them in different places.
Legend:
[1] = system: RSV B (Wash/18537 strain); test: In vitro CPE (CytoPathic Effect) inhibition effect evaluation test, RSV type B; assay type: cell-based
Protocol: The test sample is diluted in advance to an appropriate concentration with DMSO, and 3-fold series of serial dilutions were prepared on a 384-well plate (0.32 μL/well). HEp-2 cells (CCL-23; ATCC) adjusted at appropriate number (2.4×10^5 cells/mL) in 2% FBS E-MEM (prepared by adding kanamycin and FBS to Eagle's Minimum Essential Medium; Invitrogen) were added at 12.5 μL/well to the 384-well plate previously aliquoted with the test samples. The RSV A2 strain was diluted to an appropriate concentration in a culture medium and added to the 384-well plate containing the test sample at 12.5 μL/well. The culture medium was added additionally to the 384-well plate, and the test was started with 50 μL/well. Control wells were prepared with only virus-free culture medium. The plate was incubated in a 5% CO2 incubator at 37° C. for 4 days, and the plate was then placed at room temperature for 30 minutes. CellTiter-Glo (registered trademark) 2.0 assay (Promega) was added at 15 μL/well, mixed for 30 seconds, and the plate was placed for approximately 1 hour. The luminescent signal was then measured by EnVision (PerkinElmer). The inhibitory effect of the test agents on RSV-induced CPE was calculated as 0% and 100% inhibition rate for each sample concentration based on the level of remaining viable cells by CellTiter-Glo (registered trademark) 2.0, with the EC50 value for each compound calculated by nonlinear regression as the concentration that inhibits RSV-induced CPE by 50%. In the case of evaluation against RSV type B, RSV B (Wash/18537 strain) was infected in the same manner as the type A, cultured for 5 days, and quantitated in the same manner as for the A2 strain.

[2] = system: RSV A2 strain; test: In vitro CPE (CytoPathic Effect) inhibition effect evaluation test, RSV type A; assay type: cell-based
Procedure, shortened: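 HEp-2 cells (2.4×10^5 cells/mL, 2% FBS E-MEM) were infected with RSV alongside 3-fold compound dilutions and incubated at 37 °C, 4 days for A2 and 5 days for B Wash/18537. Viable cells quantified by CellTiter-Glo 2.0 luminescence; EC50 by nonlinear regression as 50% CPE inhibition.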

[3] = human respiratory syncytial virus, inhibitory effect against RSV type B, CPE inhibition, read-out: EC50
[4] = human respiratory syncytial virus, inhibitory effect against RSV type A (RSV A2 strain), HEp-2 cells, CPE inhibition, read-out: EC50
[5] = inhibitory effect against RSV type B, CPE inhibition, read-out: EC50
[6] = inhibitory effect against RSV type A (RSV A2 strain), HEp-2 cells, CPE inhibition, read-out: EC50
[7] = human respiratory syncytial virus, HEp-2, 120 h, HEp-2 cells, RSV B (Wash/18537 strain), 5 days, CellTiter-Glo, read-out: EC50, inhibitory effect against RSV type B (CPE inhibition)
[8] = human respiratory syncytial virus, HEp-2, 96 h, read-out: EC50, inhibitory effect against RSV type A (CPE inhibition)

Row | SMILES | EC50 [1, 3] [nM] | EC50 [2, 4] [nM] | other results
1 | COC1CCC(n2cc(-c3ncc(C(=O)NC4(C(=O)O)C5CC6CC(C5)CC4C6)c(C(F)(F)F)n3)c3ccc(OC4CCN(c5ncc(F)cn5)CC4)cc32)CC1 (single isomer, unassigned) [Compound I-423] | < 10 | < 10 | –
2 | O=C(NC1(C(=O)O)C2CC3CC(C2)CC1C3)c1ccc(-c2cn(C3CC4C=CC(C3)O4)c3cc(OC4CCN(c5ncc(F)cn5)CC4)ccc23)nc1C(F)(F)F (single isomer, unassigned) [Compound I-434] | < 10 | < 10 | –
3 | C/C(=N\OC1CCC(F)(F)CC1)c1ccc2c(c1)C1(CCCCC1)CN2c1ncc(C(=O)NC2(C(=O)O)C3CC4CC(C3)CC2C4)c(C(F)(F)F)n1 (single isomer, unassigned) [Compound I-476] | 100 to 5000 | 10 to 100 | –
4 | C/C(=N\OC1CC(F)(F)C1)c1ccc2c(c1)C1(CCCCC1)CN2c1ncc(C(=O)NC2(C(=O)O)C3CC4CC(C3)CC2C4)c(C(F)(F)F)n1 (single isomer, unassigned) [Compound I-477] | 100 to 5000 | 10 to 100 | –
5 | O=C(NC1(C(=O)O)C2CC3CC(C2)CC1C3)c1cnc(-c2cn(C3CCC(F)(F)CC3)c3cc(OC4CCC(OC5CC5)CC4)ccc23)nc1C(F)(F)F (single isomer, unassigned) [Compound I-478] | < 10 | < 10 | –
6 | O=C(NC1(C(=O)O)C2CC3CC(C2)CC1C3)c1cnc(-c2cn(C3CCC(F)(F)CC3)c3cc(OC4CCC(OC5CC5)CC4)ccc23)nc1C(F)(F)F (single isomer, unassigned) [Compound I-480] | – | – | EC50 [1, 5]: 10 to 100 nM; EC50 [2, 6]: < 10 nM
7 | O=C(NC1(C(=O)O)C2CC3CC(C2)CC1C3)c1cnc(-c2cn(C3CCC(F)CC3)c3cc(O[C@H]4CC[C@H](N5CC(F)(F)C5)CC4)ccc23)nc1C(F)(F)F (single isomer, unassigned) [Compound I-509] | < 10 | < 10 | –
8 | O=C(NC1(C(=O)O)C2CC3CC(C2)CC1C3)c1cnc(-c2cn(C3CCC(F)(F)CC3)c3cc(OC4CC(CN5CC(F)(F)C5)C4)ccc23)nc1C(F)(F)F (single isomer, unassigned) [Compound I-516] | 10 to 100 | < 10 | –
9 | CC(F)(F)c1nc(-c2cn(C3CCC(F)CC3)c3cc(O[C@H]4CC[C@H](N5CC(F)(F)C5)CC4)ccc23)ncc1C(=O)NC1(C(=O)O)C2CC3CC(C2)CC1C3 (single isomer, unassigned) [Compound I-568] | < 10 | < 10 | –
10 | O=C(NC1(C(=O)O)C2CC3CC(C2)CC1C3)c1ccc(-c2cn(C3CCC(F)CC3)c3cc(O[C@H]4CC[C@H](N5CC(F)(F)C5)CC4)ccc23)nc1C(F)(F)F (single isomer, unassigned) [Compound I-579] | < 10 | < 10 | –
11 | CC(F)(F)c1nc(-c2cn(C3CCC(F)(F)CC3)c3cc(O[C@H]4C[C@@H](N5CC(F)(F)C5)C4)ccc23)ncc1C(=O)NC1(C(=O)O)C2CC3CC(C2)CC1C3 (single isomer, unassigned) [Compound I-619] | < 10 | < 10 | –
12 | CC(F)(F)c1nc(-c2cn(C3CCOCC3)c3cc(OC4CC(N5CC(F)(F)C5)C4)ccc23)ncc1C(=O)NC1(C(=O)O)C2CC3CC(C2)CC1C3 (single isomer, unassigned) [Compound I-621] | < 10 | < 10 | –
13 | COCCCCOc1ccc2c(c1C)CCN2c1ncc(C(=O)NC2(C(=O)O)CCCCC2)c(C(F)(F)F)n1 [Compound I-1] | 100 to 5000 | 10 to 100 | –
14 | COCCCCOc1ccc2c(c1)CCN2c1ncc(C(=O)NC2(C(=O)O)CCCCC2)c(C(F)(F)F)n1 [Compound I-2] | 100 to 5000 | 10 to 100 | –
15 | COc1cccc(COc2ccc3c(c2)CCN3c2ncc(C(=O)NC3(C(=O)O)CCCCC3)c(C(F)(F)F)n2)c1 [Compound I-3] | 10 to 100 | 10 to 100 | –
16 | O=C(NC1(C(=O)O)CCCCC1)c1cnc(N2CCc3cc(OCCc4ccccc4)ccc32)nc1C(F)(F)F [Compound I-4] | 100 to 5000 | 10 to 100 | –
17 | N#CCCCCOc1ccc2c(c1)CCN2c1ncc(C(=O)NC2(C(=O)O)CCCCC2)c(C(F)(F)F)n1 [Compound I-5] | 100 to 5000 | 10 to 100 | –

Row | SMILES | EC50 [1, 3] [nM] | EC50 [2, 4] [nM] | other results
18 | COCCCOc1ccc2c(c1)CCN2c1ncc(C(=O)NC2(C(=O)O)CCCCC2)c(C(F)(F)F)n1 [Compound I-7] | 100 to 5000 | 10 to 100 | –
19 | O=C(NC1(C(=O)O)CCCCC1)c1cnc(N2CCc3cc(OCCC4CCOCC4)ccc32)nc1C(F)(F)F [Compound I-8] | 10 to 100 | 10 to 100 | –
20 | COCc1ccc(-c2ccc3c(c2)CCN3c2ncc(C(=O)NC3(C(=O)O)CCCCC3)c(C(F)(F)F)n2)cc1 [Compound I-9] | 100 to 5000 | 10 to 100 | –
21 | COc1cccc(COc2ccc3c(c2)CCN3c2ncc(C(=O)NC3(C(=O)O)C4CC5CC(C4)CC3C5)c(C(F)(F)F)n2)c1 (centres unmarked) [Compound I-21] | 10 to 100 | < 10 | –
22 | O=C(NC1(C(=O)O)C2CC3CC(C2)CC1C3)c1cnc(N2CCc3cc(OCCC4CCOCC4)ccc32)nc1C(F)(F)F (centres unmarked) [Compound I-23] | – | – | EC50 [1, 7]: 16 nM; EC50 [2, 8]: 0.96 nM
23 | O=C(NC1(C(=O)O)C2CC3CC(C2)CC1C3)c1cnc(N2CCc3cc(OCCN4CCOCC4)ccc32)nc1C(F)(F)F (centres unmarked) [Compound I-31] | 10 to 100 | < 10 | –
24 | O=C(NC1(C(=O)O)CCCCC1)c1ccc(N2CCc3cc(OCCC4CCOCC4)ccc32)nc1C(F)(F)F [Compound I-33] | – | – | EC50 [1, 7]: 110 nM; EC50 [2, 8]: 7.5 nM
25 | O=C(NC1(C(=O)O)CCCCC1)c1cnc(N2CCc3cc(OC4CCN(c5ncccn5)CC4)ccc32)nc1C(F)(F)F [Compound I-36] | 10 to 100 | < 10 | –
26 | O=C(NC1(C(=O)O)C2CC3CC(C2)CC1C3)c1cnc(N2CCc3cc(OC4CCN(c5ncccn5)CC4)ccc32)nc1C(F)(F)F (centres unmarked) [Compound I-45] | – | – | EC50 [1, 5]: < 10 nM; EC50 [2, 6]: < 10 nM
27 | O=C(NC1(C(=O)O)CCCCC1)c1cnc(N2CC3(CCOCC3)c3cc(OCCC4CCOCC4)ccc32)nc1C(F)(F)F [Compound I-56] | 10 to 100 | < 10 | –
28 | Cc1nc(N2CCc3cc(OCCC4CCOCC4)ccc32)nc(C(F)(F)F)c1C(=O)NC1(C(=O)O)CCCCC1 [Compound I-72] | 100 to 5000 | < 10 | –
29 | COc1ccc2c(c1)C1(CCOCC1)CN2c1ncc(C(=O)NC2(C(=O)O)C3CC4CC(C3)CC2C4)c(C(F)(F)F)n1 (centres unmarked) [Compound I-80] | – | – | EC50 [1, 5]: < 10 nM; EC50 [2, 6]: < 10 nM
30 | O=C(NC1(C(=O)O)CCCCC1)c1cnc(N2CC3(CCOCC3)c3cc(OC4CCN(c5ncccn5)CC4)ccc32)nc1C(F)(F)F [Compound I-81] | < 10 | < 10 | –
31 | O=C(NC1(C(=O)O)C2CC3CC(C2)CC1C3)c1cnc(N2CC3(CCOCC3)c3cc(OC4CCN(c5ncccn5)CC4)ccc32)nc1C(F)(F)F (centres unmarked) [Compound I-82] | – | – | EC50 [1, 7]: 0.34 nM; EC50 [2, 8]: 0.27 nM
32 | O=C(NC1(C(=O)O)C2CC3CC(C2)CC1C3)c1cnc(N2CC3(CCOCC3)c3cc(OCCC4CCOCC4)ccc32)nc1C(F)(F)F (centres unmarked) [Compound I-83] | – | – | EC50 [1, 5]: < 10 nM; EC50 [2, 6]: < 10 nM
33 | O=C(NC1(C(=O)O)C2CC3CC(C2)CC1C3)c1cnc(N2CC3(CCOCC3)c3cc(OCCN4CCOCC4)ccc32)nc1C(F)(F)F (centres unmarked) [Compound I-86] | – | – | EC50 [1, 5]: < 10 nM; EC50 [2, 6]: < 10 nM
34 | COc1nc(N2CCc3cc(OCCC4CCOCC4)ccc32)nc(C(F)(F)F)c1C(=O)NC1(C(=O)O)C2CC3CC(C2)CC1C3 (centres unmarked) [Compound I-88] | – | – | EC50 [1, 5]: 10 to 100 nM; EC50 [2, 6]: < 10 nM
